{"source": "patent US4680386A", "about": "“6-O-methylerythromycin a derivative” (Taisho Pharmaceutical Co., Ltd., priority 1984, dated 1987)", "key": {"[1]": {"tested_on": "Baccilus cereus ATCC 9634", "assay": "In vitro antibacterial activity (MIC method specified by the Japan Chemotherapeutic Society)", "format": "cell-based", "settings": "sensitive media (Eiken), read-out: MIC value (minimum inhibitory concentration)", "description": "(§1) The antibacterial activity of the compound I against various bacteria was measured using sensitive media (produced by Eiken Co.) according to the MIC method specified by the Japan Chemotherapeutic Society. Erythromycin A was used as a control."}, "[2]": {"tested_on": "Bacillus subtilis ATCC 6633", "assay": "In vitro antibacterial activity (MIC method specified by the Japan Chemotherapeutic Society)", "format": "cell-based", "description": "as §1"}, "[3]": {"tested_on": "Escherichia coli NIHJ JC-2", "assay": "In vitro antibacterial activity (MIC method specified by the Japan Chemotherapeutic Society)", "format": "cell-based", "settings": "NIHJJC2, sensitive media (Eiken), read-out: MIC value (minimum inhibitory concentration)", "description": "as §1"}, "[4]": {"tested_on": "Staphylococcus aureus FDA 209P", "assay": "In vitro antibacterial activity (MIC method specified by the Japan Chemotherapeutic Society)", "format": "cell-based", "settings": "FDA209P, read-out: MIC value (minimum inhibitory concentration)", "description": "as §1"}, "[5]": {"tested_on": "Staphylococcus aureus Smith No. 4", "assay": "In vitro antibacterial activity (MIC method specified by the Japan Chemotherapeutic Society)", "format": "cell-based", "settings": "read-out: MIC value (minimum inhibitory concentration)", "description": "as §1"}, "[6]": {"tested_on": "Streptococcus epidermidis sp-al-l", "assay": "In vitro antibacterial activity (MIC method specified by the Japan Chemotherapeutic Society)", "format": "cell-based", "settings": "read-out: MIC value (minimum inhibitory concentration)", "description": "as §1"}, "[7]": {"tested_on": "Streptococcus faecalis 8043", "assay": "In vitro antibacterial activity (MIC method specified by the Japan Chemotherapeutic Society)", "format": "cell-based", "description": "as §1"}, "[8]": {"tested_on": "Staphylococcus aureus Smith No. 4", "assay": "In vivo antibacterial activity, oral treatment of intraperitoneally infected mice", "design": "species or system ICR mice", "settings": "for number of mice surviving for 7 days after the infection: one hour after infection, 10 mice per group", "description": "10 male ICR mice (Charles River) being of the average body weight 23 g were used for each group. Staphylococcus aureus Smith No. 4 was grown on heart infusion agar medium at 37° C. for 18 hours. The bacteria were suspended in BSG (containing 8.5 g of NaCl, 300 mg of KH2 PO4, 600 mg of Na2 HPO4, 100 mg of gelatin and 1000 ml of water) to show 6×10^7 cfu/ml (containing 5% of mucin). The bacterial suspension (0.5 ml) was injected intraperitoneally to each groups of mice for infection. Erythromycin A and erythromycin A 9-oxime were used as control. An hour after infection, each compound was administered orally to different groups of animals in the specified amounts to study its therapeutic effect.\nThe therapeutic effect of the drugs was judged by the […] value calculated from the number of mice surviving for 7 days after the infection according to the method of Litchfield-Wilcoxon."}, "[9]": {"tested_on": "bacteria", "assay": "Antibacterial activity (general statement)", "settings": "general statement in words"}, "[10]": {"tested_on": "Staphylococcus aureus Smith No. 4", "assay": "In vivo antibacterial activity, oral treatment of intraperitoneally infected mice", "design": "species or system ICR mice", "settings": "one hour after infection, 7-day survival, Litchfield-Wilcoxon, 95% confidence limits given"}}, "note": "Where two headings read alike, the source gives them in different places.", "data": [{"smiles": "CC[C@H]1OC(=O)[C@H](C)[C@@H](O[C@H]2C[C@@](C)(OC)[C@@H](O)[C@H](C)O2)[C@H](C)[C@@H](O[C@@H]2O[C@H](C)C[C@H](N(C)C)[C@H]2O)[C@](C)(OC)C[C@@H](C)C(=NO)[C@H](C)[C@@H](O)[C@]1(C)O", "note": "[Compound I, 6-O-methylerythromycin A 9-oxime]", "values": [{"measurement": "MIC", "setting": "[1]", "value": 0.1, "unit": "mg/L"}, {"measurement": "MIC", "setting": "[2]; ATCC6633, Bacillus subtilis ATCC 6633, sensitive media (Eiken), read-out: MIC value (minimum inhibitory concentration)", "value": 0.1, "unit": "mg/L"}, {"measurement": "MIC", "setting": "[3]", "value": 50, "unit": "mg/L"}, {"measurement": "MIC", "setting": "[4]; Staphylococcus aureus FDA 209P, sensitive media (Eiken)", "value": 0.1, "unit": "mg/L"}, {"measurement": "MIC", "setting": "[5]; Staphylococcus aureus Smith No. 4, sensitive media (Eiken)", "value": 0.1, "unit": "mg/L"}, {"measurement": "MIC", "setting": "[6]; Streptococcus epidermidis sp-al-l, sensitive media (Eiken)", "value": 0.2, "unit": "mg/L"}, {"measurement": "MIC", "setting": "[7]; Enterococcus faecalis, Streptococcus faecalis 8043, sensitive media (Eiken), read-out: MIC value (minimum inhibitory concentration)", "value": "≤ 0.05", "unit": "mg/L"}, {"measurement": "number of mice surviving for 7 days after the infection", "setting": "[8]; 0.2 mg/mouse", "value": "1/10"}, {"measurement": "number of mice surviving for 7 days after the infection", "setting": "[8]; 0.4 mg/mouse", "value": "4/10"}, {"measurement": "number of mice surviving for 7 days after the infection", "setting": "[8]; 0.8 mg/mouse", "value": "7/10"}, {"measurement": "antibacterial activity by oral administration", "setting": "[8]; compared with erythromycin A or erythromycin A 9-oxime", "value": "far superior to erythromycin A or erythromycin A 9-oxime"}, {"measurement": "antibacterial activity", "setting": "[9]", "value": "strong antibacterial activity"}, {"measurement": "ED50", "setting": "[10]", "value": 0.516, "unit": "mg/mouse"}]}, {"smiles": "CC[C@H]1OC(=O)[C@H](C)[C@@H](O[C@H]2C[C@@](C)(OC)[C@@H](O)[C@H](C)O2)[C@H](C)[C@@H](O[C@@H]2O[C@H](C)C[C@H](N(C)C)[C@H]2O)[C@](C)(O)C[C@@H](C)C(=NO)[C@H](C)[C@@H](O)[C@]1(C)O", "note": "[Erythromycin A 9-oxime, erythromycin A 9-oxime]", "values": [{"measurement": "number of mice surviving for 7 days after the infection", "setting": "[8]; 0.5 mg/mouse", "value": "0/10"}, {"measurement": "number of mice surviving for 7 days after the infection", "setting": "[8]; 1 mg/mouse", "value": "3/10"}, {"measurement": "number of mice surviving for 7 days after the infection", "setting": "[8]; 2 mg/mouse", "value": "7/10"}, {"measurement": "ED50", "setting": "[10]", "value": 1.418, "unit": "mg/mouse"}]}, {"smiles": "CC[C@H]1OC(=O)[C@H](C)[C@@H](O[C@H]2C[C@@](C)(OC)[C@@H](O)[C@H](C)O2)[C@H](C)[C@@H](O[C@@H]2O[C@H](C)C[C@H](N(C)C)[C@H]2O)[C@](C)(O)C[C@@H](C)C(=O)[C@H](C)[C@@H](O)[C@]1(C)O", "note": "[Erythromycin A, erythromycin A]", "values": [{"measurement": "MIC", "setting": "[1]", "value": 0.2, "unit": "mg/L"}, {"measurement": "MIC", "setting": "[2]; Bacillus subtilis, ATCC6633, read-out: MIC value (minimum inhibitory concentration)", "value": 0.1, "unit": "mg/L"}, {"measurement": "MIC", "setting": "[3]", "value": 50, "unit": "mg/L"}, {"measurement": "MIC", "setting": "[4]; Staphylococcus aureus", "value": 0.2, "unit": "mg/L"}, {"measurement": "MIC", "setting": "[5]; Staphylococcus aureus", "value": 0.1, "unit": "mg/L"}, {"measurement": "MIC", "setting": "[6]; Streptococcus", "value": 0.2, "unit": "mg/L"}, {"measurement": "MIC", "setting": "[7]; Enterococcus faecalis, 8043, read-out: MIC value (minimum inhibitory concentration)", "value": "≤ 0.05", "unit": "mg/L"}, {"measurement": "number of mice surviving for 7 days after the infection", "setting": "[8]; 1 mg/mouse", "value": "1/10"}, {"measurement": "number of mice surviving for 7 days after the infection", "setting": "[8]; 2 mg/mouse", "value": "8/10"}, {"measurement": "number of mice surviving for 7 days after the infection", "setting": "[8]; 4 mg/mouse", "value": "10/10"}, {"measurement": "ED50", "setting": "[10]", "value": 1.517, "unit": "mg/mouse"}]}]}
